Assay results as given in PubChem BioAssay (NCI).
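These data come from cells grown in 96-well plates and exposed to compound for 48 hours at five concentrations. GI50 marks 50% less growth. The concentration for full growth arrest is given as TGI.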

Assays:
Test in all cases: NCI-60 cell line screen, 48 h
HS 578T breast = system: HS 578T breast
NCI-H226 lung = system: NCI-H226 lung
CAKI-1 renal = system: CAKI-1 renal
BT-549 breast = system: BT-549 breast
SK-OV-3 ovarian = system: SK-OV-3 ovarian
NCI/ADR-RES ovarian = system: NCI/ADR-RES ovarian

Row | SMILES | GI50 (HS 578T breast) [nM] | TGI (HS 578T breast) [µM] | GI50 (NCI-H226 lung) [µM] | TGI (NCI-H226 lung) [µM] | GI50 (CAKI-1 renal) [nM] | TGI (CAKI-1 renal) [µM] | GI50 (BT-549 breast) [µM] | TGI (BT-549 breast) [µM] | GI50 (SK-OV-3 ovarian) [nM] | TGI (SK-OV-3 ovarian) [µM] | GI50 (NCI/ADR-RES ovarian) [µM] | TGI (NCI/ADR-RES ovarian) [µM]
1 | N=C(N)c1ccc(-c2ccc(-c3cc(Cl)cc(Cl)c3)s2)s1 | 2150 | 5 | 30.8 | 65.4 | 1720 | 3.35 | 4.37 | > 100 | 3620 | 17.1 |  | 
2 | Cc1c2c(cc[n+]1Cc1ccc(F)cc1)c1ccc(OCc3cccc(F)c3)cc1n2Cc1cccc(F)c1 |  |  |  |  | 2020 | 5.55 |  |  | 1810 | 3.28 | 8.62 | > 100
